{
  "source": "patent US20240050434A1",
  "about": "“HORMAD1 THERAPEUTICS” (Royal Cancer Hospital, priority 2020, published 2024)",
  "key": {"[1]": {"biological_target": "T1, AURORA A kinase (Homo sapiens, UniProt O14965)", "T1 sequence (O14965 1-403)": "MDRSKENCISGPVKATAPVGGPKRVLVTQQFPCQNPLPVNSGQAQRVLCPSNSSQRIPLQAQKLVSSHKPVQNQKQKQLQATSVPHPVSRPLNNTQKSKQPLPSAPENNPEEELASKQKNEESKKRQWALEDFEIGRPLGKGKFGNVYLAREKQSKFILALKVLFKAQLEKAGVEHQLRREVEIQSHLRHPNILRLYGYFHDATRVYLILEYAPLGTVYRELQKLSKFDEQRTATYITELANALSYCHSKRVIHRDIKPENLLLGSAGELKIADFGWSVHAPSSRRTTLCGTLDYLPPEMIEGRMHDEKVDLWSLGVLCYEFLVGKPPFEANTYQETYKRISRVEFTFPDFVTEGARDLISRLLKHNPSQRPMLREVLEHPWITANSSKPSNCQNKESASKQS", "conditions": "Shimomura et al., 2010; cited from earlier work"}, "[2]": {"system": "RPE1 cells expressing a doxycycline-inducible HORMAD1 construct", "experiment": "Cell viability by cell titre glo in RPE1 cells with doxycycline-inducible HORMAD1", "assay_type": "cell-based", "conditions": "increasing doses, 5 days post drug, cell titre glo, normalised to vehicle", "description": "RPE1 cells expressing a doxycycline-inducible HORMAD1 construct were treated with doxycycline or vehicle. […] Six days post HORMAD1 induction and 5 days post drug, cell viability was estimated using cell titre glo reagent. Surviving fractions were calculated (normalised to vehicle treated cells).\nRPE1 and SUM159 cells expressing a doxycycline-inducible HORMAD1 construct were treated with doxycycline or vehicle. […] Surviving fractions were calculated (normalised to vehicle treated cells). (FIGS. 7a, b and 14c and d). Data from 3 replicas was analysed using 2-way ANOVA. 5 days post drugging, cell viability was estimated using cell titre glo reagent. Surviving fractions were calculated (normalised to vehicle treated cells). Data from 4 replicas was analysed using 2-way ANOVA.\nRPE1 cells expressing a doxycycline-inducible HORMAD1 construct were treated with doxycycline or vehicle. […] 5 days post drugging, cell viability was estimated using cell titre glo reagent. Surviving fractions were calculated (normalised to vehicle treated cells).\nRPE1 cells expressing a doxycycline-inducible HORMAD1 construct were treated with doxycycline or vehicle in order to induce HORMAD1 expression. […] Using cell titre glo as a measure of cell viability, surviving fractions were calculated (normalised to eribulin alone).\nRPE1 cells expressing a doxycycline-inducible HORMAD1 construct were treated with doxycycline or vehicle. […] Using cell titre glo as a measure of cell viability, surviving fractions were calculated (normalised to olaparib alone)."}, "[3]": {"system": "RPE1 cells expressing a doxycycline-inducible HORMAD1 construct", "experiment": "Clonogenic survival assay (SRB) in RPE1 cells with doxycycline-inducible HORMAD1", "assay_type": "cell-based", "conditions": "increasing doses, 7-14 days, normalised to vehicle", "description": "Cell confluence was analysed every 6 hours for 10 days, using incucyte software. Data are from 3 biological replicates and analysed using a two-way ANOVA. […] RPE1 cells expressing a doxycycline-inducible HORMAD1 expression construct were exposed to doxycycline or vehicle (H2O) and were exposed to 20 nM of the Aurora B inhibitor, AZD1152-HQPA. Cell confluence was analysed every 6 hours for 10 days, using incucyte software. Data are from 3 biological replicates and analysed using a two-way ANOVA. […] 7-10 days post drugging, cells were fixed, stained with SRB, and colonies were counted using Cell Profiler. […] 10 days post drugging, cells were fixed, stained with SRB, and colonies were counted using Cell Profiler. […] RPE1 cells expressing a doxycycline-inducible HORMAD1 expression construct were exposed to doxycycline or vehicle (H2O) and to increasing doses of the Aurora B inhibitor, AZD1152-HQPA. 7-10 days post drugging, cells were fixed, stained with SRB, and colonies were counted using Cell Profiler. […] SUM159 cells expressing a doxycycline-inducible HORMAD1 expression construct were exposed to doxycycline or vehicle (H2O) and to increasing doses of the Aurora B inhibitor, AZD1152-HQPA. 10 days post drugging, cells were fixed, stained with SRB, and colonies were counted using Cell Profiler.\nRPE1 cells were reverse transfected with BUB1 or control siRNA particles for 3 days. Cell lysates were collected, and analysed by western blotting using anti-BUB1 and anti-β-ACTIN antibodies. […] RPE1 cells expressing a doxycycline-inducible HORMAD1 expression construct were exposed to doxycycline or vehicle, and were reverse transfected with BUB1 or control siRNA particles. 5 days post transfection, cellular viability was estimated using cell titer glo reagent and surviving fractions were calculated relative to DMSO treated cells. […] Statistical significance estimated using a one-way ANOVA with Sidak's correction. C. Western blot illustrating expression of HORMAD1 in wild-type RPE1 cells and RPE1 cells depleted of BUB1 using CRISPR. WT and BUB1 depleted RPE1 cells expressing a doxycycline-inducible HORMAD1 expression construct, were exposed to doxycycline or vehicle for 3 days. Cell lysates were collected, and analysed by SDS-PAGE and western blotting using anti-HORMAD1, anti-H3 and anti-BUB1 antibodies. […] WT and BUB1 depleted RPE1 cells expressing a doxycycline-inducible HORMAD1 expression construct were exposed to doxycycline or vehicle. 7-10 days post doxycycline induction, cells were fixed, stained with SRB, and cellular viability was estimated using SRB absorbance readings. […] Statistical significance estimated using a one-way ANOVA with Sidak's correction. […] RPE1 expressing a doxycycline-inducible HORMAD1 expression construct, were exposed to doxycycline or vehicle. […] Cells were fixed, stained with SRB, and cellular viability was estimated using SRB absorbance readings. […] Cells were imaged every 4 hours, and confluence was continually measured using incucyte software. Growth curves were plotted, based on confluence. Data represent 3 biological replicas. […] Patient-derived organoids models were grown in culture and cell lysates collected and analysed using SDS-PAGE and western blotting using anti-HORMAD1 and anti-β-ACTIN antibodies. […] Cellular viability was estimated using cell titer glo reagent and surviving fractions were calculated relative to DMSO treated cells. […] Left, dose response curves for each organoid."}, "[4]": {"system": "H1299 cells expressing shRNA targeting HORMAD1", "conditions": "300 nM nocodazole 6 hours, then 200 nM reversine", "description": "A. Diagram of experimental outline. Cells were exposed to doxycycline for 3 days, arrested in mitosis using 300 nM nocodazole or 100 nM Paclitaxel. Mitotic cells were filmed every 4 minutes for 1200 minutes, and the time cells remained arrested in mitosis before exiting via mitotic slippage was assessed. […] RPE1 cells expressing a doxycycline-inducible HORMAD1 cDNA expression construct were exposed to doxycycline or vehicle (H2O) for three days at which point cells were exposed to 300 nM nocodazole and filmed every 4 minutes using time-lapse microscopy. The time individual cells remained arrested in mitosis was quantified and presented as the % of cells arrested in mitosis at each time point. Data reflects a total of 125 cells from 3 biological repeats and was analysed using Mantel-Cox test. C. […] The time individual cells remained arrested in mitosis was quantified and presented as the % of cells arrested in mitosis at each time point. Data reflects a total of 125 cells from 3 biological repeats and was analysed using Mantel-Cox test. […] H1299 cells expressing two individual, doxycycline-inducible, shRNA particles targeting HORMAD1 as well as a non-targeting control were grown for three days in the presence of doxycycline at which point cell lysates were generated and analysed by SDS-PAGE and western blotting using anti-HORMAD1 and anti-β-ACTIN antibodies. […]"}, "[5]": {"system": "MCF10A cells expressing a doxycycline-inducible HORMAD1 cDNA expression construct", "conditions": "300 nM nocodazole 6 hours, then 100 nM reversine", "description": "(§1) HeLa cells were transfected with two individual siRNA particles targeting HORMAD1 as well as a non-targeting control, grown for three days at which point cell lysates were generated and analysed SDS-PAGE and western blotting using anti-HORMAD1 and anti-H3 antibodies. […] HeLa cells were transfected with two individual siRNA particles targeting HORMAD1 as well as a non-targeting control, grown for three days at which point cells were exposed to 300 nM nocodazole and filmed every 4 minutes using time-lapse microscopy. The time individual cells remained arrested in mitosis was quantified and presented as the % of cells arrested in mitosis at each time point. Data reflects a total of 125 cells from 3 biological repeats and was analysed using Mantel-Cox test with Bonferonni correction. C. […] MDA-MB-436 cells expressing two individual, doxycycline-inducible, shRNA particles targeting HORMAD1 as well as a non-targeting control were grown for three days in the presence of doxycycline at which point cell lysates were generated and analysed SDS-PAGE and western blotting using anti-HORMAD1 and anti-6-ACTIN antibodies. […] MDA-MB-436 cells expressing two individual, doxycycline-inducible, shRNA particles targeting HORMAD1 as well as a non-targeting control were grown for three days in the presence of doxycycline at which point cells were exposed to 300 nM nocodazole and filmed every 4 minutes using time-lapse microscopy. The time individual cells remained arrested in mitosis was quantified and presented as the % of cells arrested in mitosis at each time point. Data reflects a total of 50 cells from 2 biological repeats and was analysed using Mantel-Cox test with Bonferonni correction. […] The time individual cells remained arrested in mitosis was quantified and presented as the % of cells arrested in mitosis at each time point. […] The time individual cells remained arrested in mitosis was quantified and presented as the % of cells arrested in mitosis at each time point."}, "[6]": {"system": "SUM159 cells induced to express HORMAD1", "conditions": "300 nM nocodazole 6 hours, then 100 nM reversine", "description": "as §1"}, "[7]": {"system": "MDA-MB-436 cells expressing shRNA targeting HORMAD1", "conditions": "300 nM nocodazole 6 hours, then 200 nM reversine", "description": "as §1"}, "[8]": {"system": "HeLa cells transfected with siRNA targeting HORMAD1", "conditions": "300 nM nocodazole 6 hours, then 100 nM reversine", "description": "as §1"}, "[9]": {"system": "RPE1 cells expressing a doxycycline-inducible HORMAD1 expression construct", "experiment": "Mitotic slippage by time-lapse microscopy in nocodazole-arrested RPE1 cells", "assay_type": "cell-based", "description": "A. Diagram of experimental outline. Cells were exposed to doxycycline for 3 days, arrested in mitosis using 300 nM nocodazole or 100 nM Paclitaxel. Mitotic cells were filmed every 4 minutes for 1200 minutes, and the time cells remained arrested in mitosis before exiting via mitotic slippage was assessed. […] RPE1 cells expressing a doxycycline-inducible HORMAD1 cDNA expression construct were exposed to doxycycline or vehicle (H2O) for three days at which point cells were exposed to 300 nM nocodazole and filmed every 4 minutes using time-lapse microscopy. The time individual cells remained arrested in mitosis was quantified and presented as the % of cells arrested in mitosis at each time point. Data reflects a total of 125 cells from 3 biological repeats and was analysed using Mantel-Cox test. C. […] The time individual cells remained arrested in mitosis was quantified and presented as the % of cells arrested in mitosis at each time point. Data reflects a total of 125 cells from 3 biological repeats and was analysed using Mantel-Cox test. […] H1299 cells expressing two individual, doxycycline-inducible, shRNA particles targeting HORMAD1 as well as a non-targeting control were grown for three days in the presence of doxycycline at which point cell lysates were generated and analysed by SDS-PAGE and western blotting using anti-HORMAD1 and anti-β-ACTIN antibodies. […] The time individual cells remained arrested in mitosis was quantified and presented as the % of cells arrested in mitosis at each time point. Data reflects a total of 90 cells from 3 biological repeats and was analysed using Mantel-Cox test with Bonferonni correction. […] Mitotic cells were filmed every 2 minutes for 400 minutes, and the time taken before cells exited mitosis via mitotic slippage was assessed. […] The time individual cells remained arrested in mitosis was quantified and presented as the % of cells arrested in mitosis at each time point. […] The time individual cells remained arrested in mitosis was quantified and presented as the % of cells arrested in mitosis at each time point. […]"}, "[10]": {"conditions": "Mortlock et al., 2007; cited from earlier work"}},
  "note": "Entries after “also recorded” stand apart in the source; their conditions may differ.",
  "data": [
    {"compound": "O=C(O)[C@]1(Cc2cccc(Nc3nccs3)n2)CC[C@@H](Oc2cccc(Cl)c2F)CC1", "note": "[MK-5108]", "values": [
      {"measurement": "concentrations inhibiting AURORA A kinase activity", "setting": "[1]", "result": "sub-nanomolar"},
      {"measurement": "specificity over AURORA B and C", "setting": "[1]", "result": "~200", "unit": "fold"},
      {"measurement": "growth inhibition (surviving fraction) of HORMAD1 expressing versus HORMAD1-negative RPE1 cells", "setting": "[2]", "result": "more effectively inhibited"},
      {"measurement": "clonogenic survival / sensitivity of HORMAD1 expressing versus HORMAD1-negative RPE1 cells", "setting": "[3]", "result": "confirmed these findings; also recorded: increased Aurora inhibitor sensitivity"}
    ]},
    {"compound": "AZ-3146", "values": [
      {"measurement": "clonogenic survival / sensitivity of HORMAD1 expressing versus HORMAD1-negative RPE1 cells", "setting": "[3]", "result": "confirmed these findings; also recorded: increased MPSI inhibitor sensitivity"}
    ]},
    {"compound": "c1nc2nc(Nc3ccc(N4CCOCC4)cc3)nc(NC3CCCCC3)c2[nH]1", "note": "[reversine, 2-(4-morpholinoanilino)-6-cyclohexylaminopurine]", "values": [
      {"measurement": "mitotic slippage in H1299 cells depleted of HORMAD1", "setting": "[4]", "result": "delayed mitotic slippage"},
      {"measurement": "mitotic slippage in MCF10A cells induced to express HORMAD1", "setting": "[5]", "result": "premature mitotic slippage"},
      {"measurement": "mitotic slippage in SUM159 cells induced to express HORMAD1", "setting": "[6]", "result": "premature mitotic slippage"},
      {"measurement": "mitotic slippage in MDA-MB-436 cells depleted of HORMAD1", "setting": "[7]", "result": "delayed mitotic slippage"},
      {"measurement": "mitotic slippage in HeLa cells depleted of HORMAD1", "setting": "[8]", "result": "delayed mitotic slippage"},
      {"measurement": "time before slippage in RPE1 cells expressing only the HORMA domain", "setting": "[9]; 300 nM nocodazole 6 hours, then 100 nM reversine", "result": "reduced"},
      {"measurement": "mitotic slippage / mitotic exit in HORMAD1 induced RPE1 cells", "setting": "[9]; 300 nM nocodazole arrest, then 100-200 nM reversine, 50 nM BOS172722 or AZD1152-HQPA", "result": "rapid mitotic exit; also recorded: premature mitotic slippage"}
    ]},
    {"compound": "CCN(CCCOc1ccc2c(Nc3cc(CC(=O)Nc4cccc(F)c4)n[nH]3)ncnc2c1)CCOP(=O)(O)O", "note": "[AZD1152]", "values": [
      {"measurement": "conversion of prodrug in plasma", "setting": "[10]", "result": "rapidly converted into AZD1152-HQPA"}
    ]}
  ]
}
